{"source": "patent US12138293B2", "about": "(priority 2020, dated 2024)", "key": {"[1]": {"settings": "rabbit, in vivo"}, "[2]": {"type": "physicochemical"}, "[3]": {"settings": "rabbit, in vivo", "remark": "listed apart in the source"}, "[4]": {"tested_on": "nitrogen mustard (NM)-exposed cornea", "parameters": "species or system New Zealand white rabbits", "settings": "rabbit, in vivo"}, "[5]": {"tested_on": "transepithelial PTK injury of rabbit corneas", "parameters": "species or system rabbits", "settings": "in vivo"}, "[6]": {"test": "in vivo", "settings": "rabbit"}, "[7]": {"tested_on": "eye of Dutch Belted rabbits", "settings": "rabbit, in vivo"}, "[8]": {"tested_on": "heptanol-induced corneal erosion (chemical burn injury) in rabbit eyes", "settings": "in vivo"}}, "note": "Several values for one entry are separate records, joined by “and”; a condition that tells them apart may be missing. Equal values may be shown once. Read-outs that look alike come from different tables or passages of the source. Residues, ends and D or L forms follow the SMILES beside them.", "data": [{"smiles": "CC[C@H](C)[C@H](NC(=O)[C@H](CCC(=O)O)NC(=O)[C@H](CC(C)C)NC(=O)[C@H](CC(=O)O)NC(=O)[C@H](CC(=O)O)NC(=O)[C@@H]1CCCN1C(=O)[C@H](CCCNC(=N)N)NC(=O)[C@@H]1CCCN1C(=O)[C@H](CCCNC(=N)N)NC(=O)[C@H](CCCCN)NC(=O)[C@H](CCCCN)NC(=O)[C@H](Cc1c[nH]c2ccccc12)NC(=O)[C@@H]1CCCN1C(=O)[C@H](CCCCN)NC(=O)[C@H](CCCNC(=N)N)NC(=O)[C@H](CCCNC(=N)N)NC(=O)[C@H](CC(N)=O)NC(=O)[C@@H]1CCCN1C(=O)[C@H](Cc1ccccc1)NC(=O)[C@H](Cc1c[nH]c2ccccc12)NC(=O)[C@@H](NC(=O)[C@H](CCCCN)NC(=O)[C@@H]1CCCN1C(=O)[C@H](CCC(N)=O)NC(=O)[C@H](CCCNC(=N)N)NC(=O)CCCCCNC(=O)CCCC[C@@H]1SC[C@@H]2NC(=O)N[C@@H]21)[C@@H](C)CC)C(=O)O", "note": "[aCT1, RQPKIWFPNRRKPWKK RPRPDDLEI] (HELM PEPTIDE1{[O=C1N[C@H]2[C@H](CS[C@H]2CCCCC(=O)[*:2])N1].[O=C(CCCCCN[*:1])[*:2]].R.Q.P.K.I.W.F.P.N.R.R.K.P.W.K.K.R.P.R.P.D.D.L.E.I}$$$$V2.0; N-terminus and C-terminus assumed)", "values": [{"measurement": "Vitreous humor levels", "setting": "[1]", "value": "quantifiable levels"}, {"measurement": "Whole blood concentration, all other samples", "setting": "[1]", "value": "below the lower limit of quantitation (LLOQ)"}, {"measurement": "Loss of Purity", "setting": "[2]; pH 6.5", "value": "0.67% and 0.24% and 0.03% and 0.76% and 1.05%"}, {"measurement": "Loss of Purity (%)", "setting": "[2]; pH 6.5", "value": "0.44% and 0.39% and 0.30% and 0.19% and 0.06%"}, {"measurement": "Loss of Purity (%)", "setting": "[2]; pH 7", "value": 0.33, "unit": "%"}, {"measurement": "Loss of Purity (%)", "setting": "[2]; pH 7.5", "value": 0.50, "unit": "%"}, {"measurement": "Maximum tolerated dose (MTD)", "setting": "[3]", "value": "no maximum tolerated dose (MTD) was identified"}, {"measurement": "Microscopic findings in the eye tissues", "setting": "[3]", "value": "no microscopic findings"}, {"measurement": "No observed adverse effect level (NOAEL)", "setting": "[3]", "value": 1.0, "unit": "μmol/eye"}, {"measurement": "Tolerability (cage-side or clinical observations, body weight, clinical pathology, organ weight, necropsy)", "setting": "[3]", "value": "well-tolerated and did not result in any adverse findings"}, {"measurement": "Corneal edema (corneal thickness)", "setting": "[4]", "value": "limited corneal edema damage"}, {"measurement": "Corneal fibroblasts/keratocytes", "setting": "[4]", "value": "protection of corneal fibroblasts/keratocytes"}, {"measurement": "Expression of COX-2", "setting": "[4]", "value": "reduced"}, {"measurement": "Formation of new blood vessels in the corneal stroma", "setting": "[4]", "value": "limited the formation of new blood vessels"}, {"measurement": "Inflammatory cell infiltration in the corneal stroma (H&E)", "setting": "[4]", "value": "significantly decreases inflammatory cell infiltration"}, {"measurement": "MMP-9 expression in the stroma", "setting": "[4]", "value": "reduction in MMP-9 expression"}, {"measurement": "VEGF expression", "setting": "[4]", "value": "decreased"}, {"measurement": "Corneal healing (fluorescein staining)", "setting": "[5]", "value": "accelerated corneal healing"}, {"measurement": "Tmax", "setting": "[6]; both", "value": 15, "unit": "min"}, {"measurement": "tissue level at time at 0.25 h", "setting": "[6]; both, topical or ocular, 0.1 umol/eye/dose, Retinal tissue concentration", "value": "1.91 to 24.2", "unit": "ng/g"}, {"measurement": "tissue level at time at 0.25 h", "setting": "[6]; female, topical or ocular, 0.1 umol/eye/dose, Cornea mean level", "value": "181 ± 50", "unit": "ng/g"}, {"measurement": "tissue level at time at 0.25 h", "setting": "[6]; female, topical or ocular, 0.1 umol/eye/dose, Palpebral conjunctiva highest mean concentration", "value": "2730 ± 697", "unit": "ng/g"}, {"measurement": "level at 0.25 h", "setting": "[6]; male, topical or ocular, 0.1 umol/eye/dose", "value": "3.26 ± 5.28", "unit": "ng/mL"}, {"measurement": "tissue level at time at 0.25 h", "setting": "[6]; male, topical or ocular, 0.1 umol/eye/dose, Aqueous humor mean level", "value": "115 ± 76.3", "unit": "ng/g"}, {"measurement": "tissue level at time at 0.25 h", "setting": "[6]; male, topical or ocular, 0.1 umol/eye/dose, Palpebral conjunctiva highest mean concentration", "value": "939 ± 228", "unit": "ng/g"}, {"measurement": "Contact of saline formulation with the ocular surface", "setting": "[7]", "value": "did not remain in contact with the ocular surface for a period of time sufficient"}, {"measurement": "Corneal healing measured by central corneal thickness", "setting": "[8]", "value": "accelerated corneal healing"}, {"measurement": "Corneal healing measured by fluorescein staining", "setting": "[8]", "value": "accelerated corneal healing"}]}]}
